# Experiments:
# Format in all cases: functional
# [1] = tested on: Mycobacterium tuberculosis; experiment: Antitubercular activity against isoniazid/ethionamide resistant Mycobacterium tuberculosis isolate 1 after 7 days; conditions: isolate 1, 168 h
# [2] = tested on: Mycobacterium tuberculosis; experiment: Antitubercular activity against isoniazid/ethionamide resistant Mycobacterium tuberculosis isolate 2 after 7 days; conditions: isolate 2, 168 h
# [3] = tested on: Mycobacterium tuberculosis; experiment: Antitubercular activity against multidrug-resistant Mycobacterium tuberculosis isolate 3 after 7 days; conditions: isolate 3, 168 h
# [4] = tested on: Mycobacterium tuberculosis; experiment: Antitubercular activity against multidrug-resistant Mycobacterium tuberculosis isolate 4 after 7 days; conditions: isolate 4, 168 h
# [5] = tested on: Mycobacterium tuberculosis; experiment: Antitubercular activity against isoniazid/rifampicin resistant Mycobacterium tuberculosis isolate 5 after 7 days; conditions: isolate 5, 168 h
# [6] = tested on: Mycobacterium tuberculosis; experiment: Antitubercular activity against multidrug-resistant Mycobacterium tuberculosis isolate 6 after 7 days; conditions: isolate 6, 168 h
# [7] = tested on: Mycobacterium tuberculosis; experiment: Antitubercular activity against multidrug-resistant Mycobacterium tuberculosis isolate 7 after 7 days; conditions: isolate 7, 168 h
# [8] = tested on: Mycobacterium tuberculosis; experiment: Antitubercular activity against multidrug-resistant Mycobacterium tuberculosis isolate 8 after 7 days; conditions: isolate 8, 168 h
Structure (SMILES),MIC [1] [µg/mL],MIC [2] [µg/mL],MIC [3] [µg/mL],MIC [4] [µg/mL],MIC [5] [µg/mL],MIC [6] [µg/mL],MIC [7] [µg/mL],MIC [8] [µg/mL]
Cc1nc(C)c(C(=O)N(c2cccc(C)c2C)C(C(=O)NC2CCCCC2)c2cccnc2)s1 (stereo not drawn),4,1,1,2,2,8,2,8
CC[C@@H](CO)NCCN[C@@H](CC)CO [ETHAMBUTOL],2,4,4,8,,4,8,> 8
NNC(=O)c1ccncc1 [ISONIAZID],5,> 0.2,> 0.2,> 5,5,> 5,5,5
NC[C@H]1O[C@H](O[C@H]2[C@H](O)[C@@H](O[C@H]3O[C@H](CO)[C@@H](O)[C@H](N)[C@H]3O)[C@H](N)C[C@@H]2N)[C@H](O)[C@@H](O)[C@@H]1O [KANAMYCIN],16,32,32,8,,8,8,16
CO[C@H]1/C=C/O[C@@]2(C)Oc3c(C)c(O)c4c(O)c(c(/C=N/N5CCN(C)CC5)c(O)c4c3C2=O)NC(=O)/C(C)=C\C=C\[C@H](C)[C@H](O)[C@@H](C)[C@@H](O)[C@@H](C)[C@H](OC(C)=O)[C@@H]1C [RIFAMPIN],32,4,64,32,128,128,> 128,> 128

# — ChEMBL document CHEMBL4422644, “Synthesis and evaluation of α-aminoacyl amides as antitubercular agents effective on drug resistant tuberculosis” (Eur J Med Chem, 2019)
